Active and inactive are the calls of the source. The calls are words filed in the database; no cut-off is given here.
Tests used:
Assay type in all cases: functional
Conditions in all cases: for zone of inhibition at 100 µg/mL: read-out: DIZ
[1] = system: Bacillus subtilis; experiment: Antibacterial activity against Bacillus subtilis at 100 ug/ml after 24 hrs
[2] = system: Proteus vulgaris; experiment: Antibacterial activity against Proteus vulgaris at 100 ug/ml after 24 hrs
[3] = system: Escherichia coli; experiment: Antibacterial activity against Escherichia coli at 100 ug/ml after 24 hrs
[4] = system: Muscodor albus; experiment: Antibacterial activity against Muscodor albus at 100 ug/ml after 24 hrs

| Compound | zone of inhibition at 100 µg/mL [1] | zone of inhibition at 100 µg/mL [2] | zone of inhibition at 100 µg/mL [3] | zone of inhibition at 100 µg/mL [4] | diameter of the inhibition zone (DIZ) [4] | diameter of the inhibition zone (DIZ) [1] | diameter of the inhibition zone (DIZ) [2] | diameter of the inhibition zone (DIZ) [3] |
| --- | --- | --- | --- | --- | --- | --- | --- | --- |
| Oc1cc(O)c(-c2cc(-c3cccnc3)[nH]n2)cc1-c1cc(-c2cccnc2)[nH]n1 | 14.2 mm | 15.4 mm | 15.2 mm | 15.3 mm |  |  |  |  |
| CC[C@H]1OC(=O)[C@H](C)[C@@H](O[C@H]2C[C@@](C)(OC)[C@@H](O)[C@H](C)O2)[C@H](C)[C@@H](O[C@@H]2O[C@H](C)C[C@H](N(C)C)[C@H]2O)[C@](C)(O)C[C@@H](C)C(=O)[C@H](C)[C@@H](O)[C@]1(C)O [ERYTHROMYCIN] | 27.1 mm | 25.1 mm | 27.4 mm | 26.1 mm |  |  |  |  |
| Oc1cc(O)c(-c2cc(-c3ccc(Cl)cc3)on2)cc1-c1cc(-c2ccc(Cl)cc2)on1 | 13.7 mm | 13.2 mm | 12.7 mm | 15 mm |  |  |  |  |
| Cc1ccc(-c2cc(-c3cc(-c4cc(-c5ccc(C)cc5)[nH]n4)c(O)cc3O)n[nH]2)cc1 | 12.4 mm | 15.7 mm | 14.7 mm |  | inactive |  |  |  |
| O=C(CC(=O)c1cc(C(=O)CC(=O)c2cccnc2)c(O)cc1O)c1cccnc1 | 11.9 mm | 14.2 mm | 16.4 mm | 15.7 mm |  |  |  |  |
| Oc1cc(O)c(-c2cc(-c3cccnc3)on2)cc1-c1cc(-c2cccnc2)on1 | 15.8 mm | 11.9 mm | 12.4 mm | 16.1 mm |  |  |  |  |
| O=C(CC(=O)c1cc(C(=O)CC(=O)c2cccs2)c(O)cc1O)c1cccs1 | 15.5 mm | 14.9 mm | 15.5 mm | 14.9 mm |  |  |  |  |
| Oc1cc(O)c(-c2cc(-c3ccc(Cl)cc3)[nH]n2)cc1-c1cc(-c2ccc(Cl)cc2)[nH]n1 | 16.2 mm | 15.7 mm | 15 mm | 15.7 mm |  |  |  |  |
| Cc1ccc(C(=O)CC(=O)c2cc(C(=O)CC(=O)c3ccc(C)cc3)c(O)cc2O)cc1 | 16.2 mm | 12.6 mm | 13.8 mm | 13.1 mm |  |  |  |  |
| Oc1cc(O)c(-c2cc(-c3ccccc3)on2)cc1-c1cc(-c2ccccc2)on1 | 11.2 mm | 15.2 mm | 17 mm |  | inactive |  |  |  |
| Oc1cc(O)c(-c2cc(-c3cccs3)[nH]n2)cc1-c1cc(-c2cccs2)[nH]n1 |  | 15.3 mm | 15.4 mm | 11.7 mm |  | inactive |  |  |
| COc1ccc(-c2cc(-c3cc(-c4cc(-c5ccc(OC)cc5)[nH]n4)c(O)cc3O)n[nH]2)cc1 | 15.5 mm |  | 12.1 mm | 14.4 mm |  |  | inactive |  |
| O=C(CC(=O)c1cc(C(=O)CC(=O)c2ccc(Cl)cc2)c(O)cc1O)c1ccc(Cl)cc1 | 13.2 mm | 11 mm |  | 15 mm |  |  |  | inactive |
| COc1ccc(-c2cc(-c3cc(-c4cc(-c5ccc(OC)cc5)on4)c(O)cc3O)no2)cc1 | 16.5 mm | 15.4 mm | 14.3 mm | 15.9 mm |  |  |  |  |
| Cc1ccc(-c2cc(-c3cc(-c4cc(-c5ccc(C)cc5)on4)c(O)cc3O)no2)cc1 | 12.7 mm | 11.4 mm |  | 14.7 mm |  |  |  | inactive |
| Oc1cc(O)c(-c2cc(-c3cccs3)on2)cc1-c1cc(-c2cccs2)on1 | 13.2 mm |  | 12.5 mm | 16 mm |  |  | inactive |  |
| COc1ccc(C(=O)CC(=O)c2cc(C(=O)CC(=O)c3ccc(OC)cc3)c(O)cc2O)cc1 | 14.9 mm |  | 11.4 mm | 16.1 mm |  |  | inactive |  |
| Oc1cc(O)c(-c2cc(-c3ccccc3)[nH]n2)cc1-c1cc(-c2ccccc2)[nH]n1 | 12.2 mm | 15.2 mm | 15.2 mm | 14 mm |  |  |  |  |
| NC[C@@H]1O[C@H](O[C@H]2[C@@H](O)[C@H](O[C@@H]3[C@@H](O)[C@H](N)C[C@H](N)[C@H]3O[C@H]3O[C@H](CN)[C@@H](O)[C@H](O)[C@H]3N)O[C@@H]2CO)[C@H](N)[C@@H](O)[C@@H]1O [FRAMYCETIN] | 26.1 mm | 25.3 mm | 26.1 mm | 25.8 mm |  |  |  |  |
| O=C(CC(=O)c1cc(C(=O)CC(=O)c2ccccc2)c(O)cc1O)c1ccccc1 | 15.8 mm | 13.3 mm | 12.4 mm | 15.2 mm |  |  |  |  |

Source: ChEMBL document CHEMBL2429819, “Synthesis, antibacterial screening, and POM analyses of novel bis-isoxazolyl/pyrazolyl-1,3-diols” (2013)
